Measurements published in patent US8703158B2, “Theobromine for the treatment of cough” (Biocopea Limited, priority 2009, dated 2014).

Legend:
[1] = test system: citric acid-induced cough responses; assay: citric acid-induced cough in guinea pigs (antitussive activity); type: in vivo, guinea pig; conditions: for mean number of citric acid-induced coughs / onset time to the first cough: 0.5 h pretreatment; for mean number of citric acid-induced coughs: vehicle 26±4
Method: The aim of this Example is to provide an assessment of the antitussive activity of intra-tracheally (i.t.) or orally dosed (p.o.) administered theobromine (3-30 mg/kg) compared to the positive control codeine (25 mg/kg, i.p.) against irritant-induced cough responses.
Thirty-six guinea pigs were randomly allocated to one of the six treatment groups (see Table 1) according to the blinding code.

[2] = observations of behaviour and health of dosed animals; conditions: codeine 25 mg/kg i.p.; reduction in movement in exposure chamber
Method: Guinea pigs were dosed intra-tracheally with theobromine or vehicle, orally with theobromine and intra-peronteneally with codeine. All pre-treatments were administered at t−30 min prior to citric acid exposure.

SMILES | inhaled dose giving equivalent anti-tussive effect, as fraction of the oral dose ([1]; citric acid-induced cough model, inhaled (i.t.) versus oral) | mean number of citric acid-induced coughs ([1]; theobromine 10 mg/kg i.t.) | onset time to the first cough ([1]; theobromine 30 mg/kg p.o., versus vehicle control (71±26 s)) | effect on the total number of coughs ([1]; theobromine 3-30 mg/kg i.t., local administration) | mean number of citric acid-induced coughs ([1]; codeine 25 mg/kg i.p., citric acid 1 M, 10 min exposure + 5 min recovery) | onset time to the first cough ([1]; codeine 25 mg/kg i.p., vehicle 71±26 s) | behaviour of the animals (sedation) [2]
Cn1cnc2c1c(=O)[nH]c(=O)n2C [theobromine] | ⅓ | 10.33±2 coughs | not significantly increased | significant dose-dependant effect |  |  | 
COc1ccc2c3c1O[C@H]1[C@@H](O)C=C[C@H]4[C@@H](C2)N(C)CC[C@@]341 [codeine] |  |  |  |  | 5±1 coughs | 337 ± 51 s | slight sedation
